Reference: patent US10913736B2 (UNIVERSITY OF WASHINGTON, priority 2014, dated 2021)
Several values for one entry are separate records, joined by “and”; a condition that tells them apart may be missing. Equal values may be shown once.

Assays:
MetRS (T. brucei) = MetRS (T. brucei) (Trypanosoma brucei brucei, UniProt Q38C91); experiment: MetRS (T. brucei) ATP depletion assay using Kinase-Glo; type: biochemical
T. brucei = experiment: Growth inhibition assay of T. brucei cell cultures (Alamar Blue, 48 h); type: cell-based; settings: Trypanosoma brucei; read-out: B) T. brucei EC50

MetRS (T. brucei), sequence (Q38C91 entry or part of it): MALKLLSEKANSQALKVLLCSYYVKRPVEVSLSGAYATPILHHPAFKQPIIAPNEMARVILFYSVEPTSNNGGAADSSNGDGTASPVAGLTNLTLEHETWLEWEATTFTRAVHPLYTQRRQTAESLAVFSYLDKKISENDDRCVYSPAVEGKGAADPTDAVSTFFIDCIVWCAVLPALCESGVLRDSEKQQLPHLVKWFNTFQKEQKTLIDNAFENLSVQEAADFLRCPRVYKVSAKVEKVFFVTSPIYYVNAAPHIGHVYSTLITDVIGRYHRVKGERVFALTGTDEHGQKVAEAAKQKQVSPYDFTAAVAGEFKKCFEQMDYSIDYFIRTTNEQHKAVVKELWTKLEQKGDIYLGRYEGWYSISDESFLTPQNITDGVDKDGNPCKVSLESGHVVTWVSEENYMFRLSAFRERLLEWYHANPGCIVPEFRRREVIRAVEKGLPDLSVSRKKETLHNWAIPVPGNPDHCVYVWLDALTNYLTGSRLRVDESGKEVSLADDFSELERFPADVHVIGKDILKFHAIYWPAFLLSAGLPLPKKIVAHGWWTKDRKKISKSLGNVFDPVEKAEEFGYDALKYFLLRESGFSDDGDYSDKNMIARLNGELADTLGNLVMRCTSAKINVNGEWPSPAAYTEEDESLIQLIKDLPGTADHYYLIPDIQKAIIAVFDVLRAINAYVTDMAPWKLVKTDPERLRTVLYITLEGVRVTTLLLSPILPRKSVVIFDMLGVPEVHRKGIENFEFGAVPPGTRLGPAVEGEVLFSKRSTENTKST

SMILES | IC50 (MetRS (T. brucei)) | EC50 (T. brucei) [nM]
O=C1N[C@@H](Cc2ccc(Cl)cc2Cl)CN1Cc1nc2ccccc2[nH]1 [Compound 1792, 1-(1H-Benzoimidazol-2-ylmethyl)-4-(2,4-dichloro-benzyl)-imidazolidin-2-one] | 150 nM | 2680
Clc1cc(Cl)cc(CN[C@H]2CCCN(C3=NCc4ccccc4N3)C2)c1 [Compound 1961] | 121 nM | 3760
COC(=O)[C@H](Cc1ccc(Cl)cc1Cl)NC(=O)NCc1nc2ccccc2[nH]1 [Compound 1755, methyl (2S)-2-{[(1H-1,3-benzodiazol-2-ylmethyl)carbamoyl]amino}-3-(2,4-dichlorophenyl)propanoate] | 1390 nM | > 10000
O=C(Cc1nc2cc(Cl)cc(Cl)c2[nH]1)NCc1nc2ccccc2[nH]1 [Compound 1764, N-((1H-benzo[d]imidazol-2-yl)methyl)-2-(5,7-dichloro-1H-benzo[d]imidazol-2-yl)acetamide] | > 10000 nM | > 20000
Fc1ccc2[nH]c(C3CCCC(NCc4cc(Cl)cc(Cl)c4)C3)nc2c1 (stereo not drawn) [Compound 1839, N-(3,5-dichlorobenzyl)-3-(5-fluoro-1H-benzo[d]imidazol-2-yl) cyclohexanamine] | 3680 nM | 2320
Clc1ccc(CN2CCC[C@H](c3nc4cc(Cl)ccc4[nH]3)C2)c(Cl)c1 [Compound 1837, (S)-5-chloro-2-(1-(2,4-dichlorobenzyl)piperidin-3-yl)-1H-benzo[d]imidazole] | 119 nM | 1340
Clc1cc(Cl)cc(CNC2CCN(c3nc4nc(Cl)ccc4[nH]3)CC2)c1 [Compound 1867, 1-(5-chloro-1H-imidazo[4,5-b]pyridin-2-yl)-N-(3,5-dichlorobenzyl)piperidin-4-amine] | 4970 nM | > 20000
NC(Cc1nc2ccccc2[nH]1)C(=O)NCCc1ccc(Cl)cc1Cl (stereo not drawn) [Compound 1795, N-(2,4-dichlorophenethyl)-2-amino-3-(1H-benzo[d]imidazol-2-yl)propanamide] | > 10000 nM | 12300
CCOc1c(Br)cc(Cl)cc1CN[C@H]1CCCN(c2nc3nc(Cl)ccc3[nH]2)C1 [Compound 1937, (S)—N-(3-bromo-5-chloro-2-ethoxybenzyl)-1-(5-chloro-1H-imidazo[4,5-b]pyridin-2-yl)piperidin-3-amine] | 19 nM | 230
O=C(NCCc1ccc(Cl)cc1Cl)NCc1nc2ccccc2[nH]1 [Compound 1702, 1-((1H-benzo[d]imidazol-2-yl)methyl)-3-(2,4-dichlorophenethyl)urea] | 9 nM and 11 nM | 4970
O=C(NCc1cc(Cl)cc(Cl)c1)NCc1nc2ccc(Cl)nc2[nH]1 [Compound 1991, 3-({5-chloro-3H-imidazo[4,5-b]pyridin-2-yl}methyl)-1-[(3,5-dichlorophenyl)methyl]urea] | 18 nM | 2070
Clc1cc(Cl)cc(CN[C@@H]2CCCN(c3nc4nc(Cl)ccc4[nH]3)C2)c1 [Compound 1855, (R)-1-(5-chloro-1H-imidazo[4,5-b]pyridin-2-yl)-N-(3,5-dichlorobenzyl) piperidin-3-amine] | 192 nM | 999
CCN(Cc1cc(Cl)cc(Cl)c1)[C@H]1CCCN(c2nc3ccc(Cl)nc3[nH]2)C1 [Compound 1955, (S)-1-(5-chloro-1H-imidazo[4,5-b]pyridin-2-yl)-N-(3,5-dichlorobenzyl)-N-ethylpiperidin-3-amine] | 286 nM | 1740
CC(=O)N(Cc1cc(Cl)cc(Cl)c1)[C@H]1CCCN(c2nc3nc(F)ccc3[nH]2)C1 [Compound 1901, (S)—N-(3,5-dichlorobenzyl)-N-(1-(5-fluoro-1H-imidazo[4,5-b]pyridin-2-yl)piperidin-3-yl)acetamide] | 692 nM | 5100
Clc1cc(Cl)cc(CN[C@H]2CCN(c3nc4ccc(Cl)nc4[nH]3)C2)c1 [Compound 1845, (3S)-1-{5-chloro-3H-imidazo[4,5-b]pyridin-2-yl}-N-[(3,5-dichlorophenyl)methyl]pyrrolidin-3-amine] | 47 nM | 1540
Clc1cc(Cl)cc(CNCCNc2nc3ncc(Cl)cc3[nH]2)c1 [Compound 1850, [2-({6-chloro-1H-imidazo[4,5-b]pyridin-2-yl}amino)ethyl][(3,5-dichlorophenyl)methyl]amine] | 385 nM | 3870
Clc1cc(Cl)cc(CO[C@H]2CCCN(c3nc4nc(Cl)c(Br)cc4[nH]3)C2)c1 [Compound 1904, (S)-6-bromo-5-chloro-2-(3-((3,5-dichlorobenzyl)oxy)piperidin-1-yl)-1H-imidazo[4,5-b]pyridine] | > 10000 nM | > 20000
CC(=O)N(Cc1cc(Cl)cc(Cl)c1)C1CCCC(c2nc3cc(Cl)cnc3[nH]2)C1 (stereo not drawn) [Compound 1842, N-(3-(6-chloro-3H-imidazo[4,5-b]pyridin-2-yl)cyclohexyl)-N-(3,5-dichlorobenzyl)acetamide] | > 10000 nM | 8580

SMILES | IC50 (MetRS (T. brucei)) | EC50 (T. brucei) [nM]
Clc1cc(Cl)cc(CNC2CCCCN(c3nc4nc(Cl)ccc4[nH]3)C2)c1 (stereo not drawn) [Compound 1903, 1-(5-chloro-1H-imidazo[4,5-b]pyridin-2-yl)-N-(3,5-dichlorobenzyl) azepan-3-amine] | 682 nM | 1810
Clc1cc(Cl)cc(CN2CCN(c3nc4nc(Cl)ccc4[nH]3)CC2)c1 [Compound 1866, 5-chloro-2-(4-(3,5-dichlorobenzyl)piperazin-1-yl)-1H-imidazo[4,5-b]pyridine] | > 10000 nM | > 20000
O=C(Cc1ccc(Cl)cc1Cl)NCc1nc2ncc(Cl)cc2[nH]1 [Compound 1878, N-({6-chloro-1H-imidazo[4,5-b]pyridin-2-yl}methyl)-2-(2,4-dichlorophenyl)acetamide] | 195 nM | 7520
O=C(/C=C\Oc1ccc(Cl)cc1Cl)NCc1nc2ccccc2[nH]1 [Compound 1730, (Z)—N-((1H-benzo[d]imidazol-2-yl)methyl)-3-(2,4-dichlorophenoxy)acrylamide] | 142 nM | 723
O=C(Cc1cc(Cl)cc(Cl)c1)N1CCCC(c2nc3ccccc3[nH]2)C1 (stereo not drawn) [Compound 1732, 1-(3-(1H-benzo[d]imidazol-2-yl)piperidin-1-yl)-2-(3,5-dichlorophenyl)ethanone] | 288 nM | > 5000
O=C(Cc1cc2cc(Cl)cc(Cl)c2o1)NCc1nc2ccccc2[nH]1 [Compound 1756, N-((1H-benzo[d]imidazol-2-yl)methyl)-2-(5,7-dichlorobenzofuran-2-yl)acetamide] | 3720 nM | > 10000
COC(=O)N(CCCNc1nc2ccc(F)nc2[nH]1)Cc1cc(Cl)cc(Cl)c1 [Compound 1964, methyl 3,5-dichlorobenzyl3-(5-fluoro-3H-imidazo[4,5-b]pyridin-2-ylamino)propylcarbamate] | 17 nM | 36.6
Clc1ccc(CN[C@@H]2CCN(c3nc4ccc(Cl)nc4[nH]3)C2)c(Cl)c1 [Compound 1848, (3R)-1-{5-chloro-3H-imidazo[4,5-b]pyridin-2-yl}-N-[(2,4-dichlorophenyl}methyl]pyrrolidin-3-amine] | 847 nM | 10600
Fc1ccc2[nH]c(C3CCCC(NCc4cc(Cl)cc(Cl)c4)C3)nc2n1 (stereo not drawn) [Compound 1800, N-(3,5-dichlorobenzyl)-3-(5-fluoro-1H-imidazo[4,5-b]pyridin-2-yl) cyclohexanamine] | 663 nM | 961
CN(CCNCc1cc(Cl)cc(Cl)c1)c1nc2nc(Cl)c(Br)cc2[nH]1 [Compound 1894, 6-bromo-5-chloro-N-(2-{[(3,5-dichlorophenyl)methyl]amino}ethyl)-N-methyl-3H-imidazo[4,5-b]pyridin-2-amine] | 179 nM | 2890
CC(=O)N(Cc1cc(Cl)cc(Cl)c1)C1CCCC(c2nc3cc(F)ccc3[nH]2)C1 (stereo not drawn) [Compound 1860, N-(3,5-dichlorobenzyl)-N-(3-(5-fluoro-1H-benzo[d]imidazol-2-yl)cyclohexyl)acetamide] | 6900 nM | 8570
O=C(Cc1ccc(Cl)cc1Cl)NCc1nc2cnc(Cl)cc2[nH]1 [Compound 1880, N-({6-chloro-1H-imidazo[4,5-c]pyridin-2-yl}methyl)-2-(2,4-dichlorophenyl)acetamide] | 214 nM | 8400
Clc1cc(Cl)c(OCC2CC2)c(CN[C@H]2CCCN(c3nc4nc(Cl)ccc4[nH]3)C2)c1 [Compound 1929, (S)-1-(5-chloro-1H-imidazo[4,5-b]pyridin-2-yl)-N-(3,5-dichloro-2-(cyclopropylmethoxy)benzyl)piperidin-3-amine] | 29 nM | 511
Clc1cc(Cl)cc(CN2CCC[C@H](c3nc4cc(Cl)ccc4[nH]3)C2)c1 [Compound 1813, (S)-5-chloro-2-(1-(3,5-dichlorobenzyl)piperidin-3-yl)-1H-benzo[d]imidazole] | 747 nM | 1380
CC(=O)N(Cc1cc(Cl)cc(Cl)c1)C1CCCN(c2nc3nc(F)ccc3[nH]2)C1 (stereo not drawn) [Compound 1887, N-(3,5-dichlorobenzyl)-N-(1-(5-fluoro-1H-imidazo[4,5-b]pyridin-2-yl)piperidin-3-yl)acetamide] | 6660 nM | > 20000
CC(=O)N(Cc1cc(Cl)cc(Cl)c1)[C@@H]1CCC[C@H](c2nc3nc(F)ccc3[nH]2)C1 [Compound 1932, N-(3,5-dichlorobenzyl)-N-((1R,3S)-3-(5-fluoro-1H-imidazo[4,5-b]pyridin-2-yl)cyclohexyl)acetamide] | 518 nM | 8910
CC(=O)N(Cc1cc(Cl)cc(Cl)c1)N1CCCC(c2nc3cc(F)ccc3[nH]2)C1 (stereo not drawn) [Compound 1833, N-[(3,5-dichlorophenyl)methyl]-N-[3-(5-fluoro-1H-1,3-benzodiazol-2-yl)piperidin-1-yl]acetamide] | > 10000 nM | > 20000
OC1NC(Cc2ccc(Cl)cc2Cl)=CN1Cc1nc2ccccc2[nH]1 (stereo not drawn) [Compound 1936, 3-((1H-benzo[d]imidazol-2-yl)methyl)-5-(2,4-dichlorobenzyl)-2,3-dihydro-1H-imidazol-2-ol] | 65 nM | 1830
